Data published in US7704995B2 (Exelixis, Inc., priority 2003, dated 2010).
Where two headings read alike, the source gives them in different places.

Molecular target: T1, Chk1 (Homo sapiens, UniProt O14757)
T1 construct: purchased Upstate Biotechnology
T1 sequence (O14757 1-476): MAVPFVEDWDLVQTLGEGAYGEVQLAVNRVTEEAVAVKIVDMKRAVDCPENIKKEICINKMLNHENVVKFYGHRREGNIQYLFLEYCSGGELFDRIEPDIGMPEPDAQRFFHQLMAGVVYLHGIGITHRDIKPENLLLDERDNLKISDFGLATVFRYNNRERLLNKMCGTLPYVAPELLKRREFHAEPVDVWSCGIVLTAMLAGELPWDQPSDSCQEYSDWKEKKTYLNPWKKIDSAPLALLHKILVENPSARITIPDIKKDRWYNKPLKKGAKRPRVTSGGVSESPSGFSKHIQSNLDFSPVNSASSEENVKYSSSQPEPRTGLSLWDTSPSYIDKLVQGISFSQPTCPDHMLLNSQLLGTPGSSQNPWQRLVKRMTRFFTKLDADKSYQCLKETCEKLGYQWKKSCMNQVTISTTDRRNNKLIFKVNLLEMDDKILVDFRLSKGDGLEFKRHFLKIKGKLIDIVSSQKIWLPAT
Assay: Chk1 kinase assay: incorporation of γ-33P ATP into immobilized myelin basic protein
Type: biochemical
Settings: read-out: Chk1 IC50
How it was run: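 Plates coated with MBP, then kinase reactions in Hepes pH 7.6 buffer with 10 mM MgCl2 and 1% DMSO were started by adding unlabeled plus γ-33P ATP (10 μM for Chk1 at 10 nM enzyme; 30 μM for Chk2 at 20 nM enzyme). After 1 h at room temperature, plates were washed and counted.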

[1] = Table 11, Chk1 only, class symbols A-D

IC50 (Table 11, Chk1 only) [nM]	IC50 [nM]	Compound	also measured
< 50	–	CNC(=O)c1nc(-c2cccc(CNCc3ccc(-c4ccco4)cc3F)c2)cnc1N [Example 451, 3-amino-6-[3-({[(2-fluoro-4-furan-2-ylphenyl)methyl]amino}methyl)phenyl]-N-methylpyrazine-2-carboxamide]	–
–	< 50	CNC(=O)c1nc(-c2cccc(C(=O)NCc3ccc(-c4ccccc4)cc3)c2)cnc1N [Example 182, 3-amino-6-(3-{[(biphenyl-4-ylmethyl)amino]carbonyl}phenyl)-N-methylpyrazine-2-carboxamide]	–
≥ 10000	–	CN/N=C(\C)c1nc(-c2cccc(C(=O)NCc3ccccc3)c2)cnc1N [Example 638, 3-{5-amino-6-[(1E)-N-methylethanehydrazonoyl]pyrazin-2-yl}-N-(phenylmethyl)benzamide]	–
–	1000 to 10000	CNC(=O)c1nc(-c2cccc(OCCN3CCC(CCO)CC3)c2)cnc1N [Example 176, 3-amino-6-[3-({2-[4-(2-hydroxyethyl)piperidin-1-yl]ethyl}oxy)phenyl]-N-methylpyrazine-2-carboxamide]	–
–	1000 to 10000	CNC(=O)c1nc(-c2cccc(S(=O)(=O)NCc3ccccc3)c2)cnc1N [Example 265, 3-amino-N-methyl-6-(3-{[(phenylmethyl)amino]sulfonyl}phenyl)pyrazine-2-carboxamide]	–
–	–	CC(C)(C)OC(=O)NCc1cccc(-c2cnc(N)c(C(=O)N[C@H]3CCCN(C(=O)OC(C)(C)C)C3)n2)c1 [Example 833, 1,1-dimethylethyl (3S)-3-{[(3-amino-6-{3-[({[(1,1-dimethylethyl)oxy]carbonyl}amino)methyl]phenyl}pyrazin-2-yl)carbonyl]amino}piperidine-1-carboxylate]	IC50 [1]: 50 to 1000 nM
–	–	Nc1ncc(-c2cccc(C(=O)NCc3c(F)cccc3Cl)c2)nc1C(=O)N[C@H]1CCCNC1 [Example 995, 3-amino-6-[3-({[(2-chloro-6-fluorophenyl)methyl]amino}carbonyl)phenyl]-N-[(3S)-piperidin-3-yl]pyrazine-2-carboxamide]	IC50 [1]: < 50 nM
–	–	Nc1ncc(-c2cccc(C(=O)NCc3ccc(Cl)cc3F)c2)nc1C(=O)N[C@H]1CCCCNC1 [Example 996, 3-amino-N-[(3S)-azepan-3-yl]-6-[3-({[(4-chloro-2-fluorophenyl)methyl]amino}carbonyl)phenyl]pyrazine-2-carboxamide]	IC50 [1]: < 50 nM
–	≥ 10000	CNC(=O)c1nc(-c2noc(C3CCCC3)n2)cnc1N [Example 67, 3-amino-6-(5-cyclopentyl-1,2,4-oxadiazol-3-yl)-N-methylpyrazine-2-carboxamide]	–
–	–	Nc1ncc(-c2cccc(CNC(=O)Nc3ccccc3Br)c2)nc1C(=O)N[C@H]1CCCNC1 [Example 922, 3-amino-6-{3-[({[(2-bromophenyl)amino]carbonyl}amino)methyl]phenyl}-N-[(3S)-piperidin-3-yl]pyrazine-2-carboxamide]	IC50 [1]: < 50 nM
< 50	–	Nc1ncc(-c2cccc(CN[C@H]3CCc4ccccc43)c2)nc1C(=O)N[C@H]1CCNC1 [Example 685, 3-amino-6-(3-{[(1S)-2,3-dihydro-1H-inden-1-ylamino]methyl}phenyl)-N-[(3S)-pyrrolidin-3-yl]pyrazine-2-carboxamide]	–
–	50 to 1000	CNC(=O)c1nc(-c2cccc(OCCN3CCN(c4ccccc4)CC3)c2)cnc1N [Example 181, 3-amino-N-methyl-6-(3-{[2-(4-phenylpiperazin-1-yl)ethyl]oxy}phenyl)pyrazine-2-carboxamide]	–
< 50	–	Nc1ncc(-c2cccc(CO)c2)nc1-c1nc(-c2ccncc2)n[nH]1 [Example 606, {3-[5-amino-6-(3-pyridin-4-yl-1H-1,2,4-triazol-5-yl)pyrazin-2-yl]phenyl}methanol]	–
–	50 to 1000	CNC(=O)c1nc(-c2cccc(C(=O)NCc3c(Cl)cc(Cl)cc3Cl)c2)cnc1N [Example 292, 3-amino-N-methyl-6-[3-({[(2,4,6-trichlorophenyl)methyl]amino}carbonyl)phenyl]pyrazine-2-carboxamide]	–
≥ 10000	–	Nc1ncc(-c2cccc(C(=O)NCc3ccccc3)c2)nc1C(=O)N1CCN(Cc2ccccc2)CC1 [Example 575, 3-(5-amino-6-{[4-(phenylmethyl)piperazin-1-yl]carbonyl}pyrazin-2-yl)-N-(phenylmethyl)benzamide]	–
< 50	–	CNC(=O)c1nc(-c2cccc(CNC3CCc4c(-c5cccs5)cccc43)c2)cnc1N (stereo not drawn) [Example 494, 3-amino-N-methyl-6-[3-({[4-(2-thienyl)-2,3-dihydro-1H-inden-1-yl]amino}methyl)phenyl]pyrazine-2-carboxamide]	–

IC50 (Table 11, Chk1 only) [nM]	IC50 [nM]	Compound	also measured
< 50	–	CNC(=O)c1nc(-c2cccc(CNC3CCc4c(O)cccc43)c2)cnc1N (stereo not drawn) [Example 515, 3-amino-6-(3-{[(4-hydroxy-2,3-dihydro-1H-inden-1-yl)amino]methyl}phenyl)-N-methylpyrazine-2-carboxamide]	–
–	50 to 1000	CNC(=O)c1nc(-c2cccc(C(=O)NCc3ccccc3N)c2)cnc1N [Example 231, 3-amino-6-[3-({[(2-aminophenyl)methyl]amino}carbonyl)phenyl]-N-methylpyrazine-2-carboxamide]	–
–	–	CN(C)c1ccc(NC(=O)NCc2cccc(-c3cnc(N)c(C(=O)N[C@H]4CCCNC4)n3)c2)cc1 [Example 966, 3-amino-6-(3-{[({[4-(dimethylamino)phenyl]amino}carbonyl)amino]methyl}phenyl)-N-[(3S)-piperidin-3-yl]pyrazine-2-carboxamide]	IC50 [1]: < 50 nM
–	50 to 1000	CNC(=O)c1nc(-c2cccc(C(=O)NCc3ccc(F)cc3F)c2)cnc1N [Example 226, 3-amino-6-[3-({[(2,4-difluorophenyl)methyl]amino}carbonyl)phenyl]-N-methylpyrazine-2-carboxamide]	–
–	–	Nc1ncc(-c2cccc(C(=O)N[C@H]3CCc4ccccc43)c2)nc1C(=O)NC1CCCCNC1 (stereo partly drawn) [Example 967, 3-amino-N-azepan-3-yl-6-(3-{[(1S)-2,3-dihydro-1H-inden-1-ylamino]carbonyl}phenyl)pyrazine-2-carboxamide]	IC50 [1]: < 50 nM
–	–	Nc1ncc(-c2cccc(C(=O)NCc3ccc(F)c(Br)c3)c2)nc1C(=O)N[C@H]1CCCNC1 [Example 1027, 3-amino-6-[3-({[(3-bromo-4-fluorophenyl)methyl]amino}carbonyl)phenyl]-N-[(3S)-piperidin-3-yl]pyrazine-2-carboxamide]	IC50 [1]: < 50 nM
–	50 to 1000	CNC(=O)c1nc(-c2cccc(C(=O)NCc3ccc(N(C)C)cc3)c2)cnc1N [Example 238, 3-amino-6-{3-[({[4-(dimethylamino)phenyl]methyl}amino)carbonyl]phenyl}-N-methylpyrazine-2-carboxamide]	–
–	50 to 1000	CNC(=O)c1nc(-c2cccc(C(=O)NCc3cccc(N)c3)c2)cnc1N [Example 232, 3-amino-6-[3-({[(3-aminophenyl)methyl]amino}carbonyl)phenyl]-N-methylpyrazine-2-carboxamide]	–
–	50 to 1000	CNC(=O)c1nc(-c2cccc(C(=O)NCc3ccc(Cl)c(Cl)c3)c2)cnc1N [Example 279, 3-amino-6-[3-({[(3,4-dichlorophenyl)methyl]amino}carbonyl)phenyl]-N-methylpyrazine-2-carboxamide]	–
–	1000 to 10000	CCN(Cc1ccncc1)C(=O)c1cccc(-c2cnc(N)c(C(=O)NC)n2)c1 [Example 116, 3-amino-6-(3-{[ethyl(pyridin-4-ylmethyl)amino]carbonyl}phenyl)-N-methylpyrazine-2-carboxamide]	–
–	1000 to 10000	CNC(=O)c1nc(-c2cccc(C(=O)NC3CC3)c2)cnc1N [Example 278, 3-amino-6-{3-[(cyclopropylamino)carbonyl]phenyl}-N-methylpyrazine-2-carboxamide]	–
–	–	Nc1ncc(-c2cccc(NC(=O)c3cc(-c4ccc(Cl)cc4)cs3)c2)nc1C(=O)N[C@H]1CCCNC1 [Example 891, 3-amino-6-[3-({[4-(4-chlorophenyl)-2-thienyl]carbonyl}amino)phenyl]-N-[(3S)-piperidin-3-yl]pyrazine-2-carboxamide]	IC50 [1]: < 50 nM
≥ 10000	–	C/C(=N\Nc1ccc(OC(F)(F)F)cc1)c1nc(-c2cccc(C(=O)NCc3ccccc3)c2)cnc1N [Example 634, 3-[5-amino-6-((1E)-N-{4-[(trifluoromethyl)oxy]phenyl}ethanehydrazonoyl)pyrazin-2-yl]-N-(phenylmethyl)benzamide]	–
50 to 1000	–	Nc1ncc(-c2cccc(CO)c2)nc1-c1nc(C2CNCCO2)n[nH]1 (stereo not drawn) [Example 703, {3-[5-amino-6-(3-morpholin-2-yl-1H-1,2,4-triazol-5-yl)pyrazin-2-yl]phenyl}methanol]	–
–	50 to 1000	CNC(=O)c1nc(-c2cccc(NC(=O)Cc3ccccc3)c2)cnc1N [Example 158, 3-amino-N-methyl-6-{3-[(phenylacetyl)amino]phenyl}pyrazine-2-carboxamide]	–
≥ 10000	–	Nc1ncc(-c2cccc(C(=O)NCc3ccccc3)c2)nc1C(=O)NCCNC(=O)c1cnc2ccccc2n1 [Example 663, N-[2-({[3-amino-6-(3-{[(phenylmethyl)amino]carbonyl}phenyl)pyrazin-2-yl]carbonyl}amino)ethyl]quinoxaline-2-carboxamide]	–

Compound	IC50 (Table 11, Chk1 only) [nM]	IC50 [nM]	also measured
CNC(=O)c1nc(-c2cccc(-c3nnn[nH]3)c2)cnc1N [Example 83, 3-amino-N-methyl-6-[3-(1H-tetrazol-5-yl)phenyl]pyrazine-2-carboxamide]	–	1000 to 10000	–
